# According to paper PMC12030314, “Biomarker-Driven Pharmacokinetics and Efficacy of Polymyxin B in Critically Ill Patients with XDR-GN Pneumonia” (Pharmaceuticals, 2025):
# Where two headings read alike, the source gives them in different places. Where a SMILES comes first, the peptide text is derived from it. Bridges are numbered along the chain shown (N, C = ends). [ ]: non-standard residue; d: D form. The star is where a group is joined. X1 = CC[C@H](C)CCCCC(=O)*; Dab = NCC[C@H](N)C(=O)O
# Assay: Plasma pharmacokinetics of intravenous PMB in critically ill patients (UPLC-MS/MS; noncompartmental and two-compartment analysis)
# Assay type: in vivo, human
# Conditions: for Cmax: read-out: Css,max; for AUC(0-t): read-out: AUCss,0–24h
# Description: The patients received a 100 mg loading dose followed by a maintenance dose of 50 mg every 12 h. PMB was administered by short-term infusions (60 min). Blood samples were collected from each patient in three stages.
# Phase of first dose: Blood samples were collected at defined time points to capture PK data.
# Phase of steady state: Although a steady state of PMB concentration can be achieved after 48 h of treatment, considering the special condition of critically ill patients, blood samples were collected immediately before the initiation of the seventh dose (trough) and immediately at the end of the seventh dose (peak).
# During the last dose phase, blood samples were collected immediately before the initiation of the last dose, immediately at the end of the last dose, and randomly (at least eight blood samples for each person) at 1.5, 2, 2.5, 3, 5, 7, 9, 12, 15, 19, 24, 48, and 72 h after completing the infusion.
# Blood and BAL samples were centrifuged for 10 min (3000 rpm) and immediately stored at −80 °C until analysis.
# PMB concentrations in the samples were quantified by monitoring the total concentrations of polymyxin B1 (PB1), polymyxin B2 (PB2), polymyxin B3 (PB3), and isoleucine polymyxin B1 (I-PB1) via a validated ultraperformance liquid chromatography–tandem mass spectrometry (UPLC-MS/MS) assay. The standard substances, including PB1 (CAS P037), PB2 (CAS P037), PB3 (CAS P040), and I-PB1 (CAS P038), were purchased by TOKU-E Company (>99% pure, Bellingham, WA, USA). ACQUITY UPLC system, Quattro PremierXE triple quadrupole mass spectrometer, electrospray isonizaiton source (ESI), and Masslynx 4.1 data processing software were used in this study (Waters Company, Milford, MA, USA). An Acquity UPLC BEH C18 column (50 mm × 2.1 mm internal diameter, 1.8 μm) purchased from Waters (Milford, MA, USA) was used. The mobile phase comprised a 0.2% formic acid aqueous solution and a 0.2% formic acid acetonitrile solution, and the flow rate was 0.3 mL/min. Mass spectrometric detection was performed in positive electrospray ionization (ESI+) mode with multiple reaction monitoring (MRM). The optimized transitions were set as follows: m/z 602.7→101.0 for PB1 and I-PB1, m/z 595.7→100.9 for PB2 and PB3, and […] for the internal standard norvancomycin. Plasma and BAL supernatant was aliquoted into microcentrifuge tubes and sequentially treated with 20 μL norvancomycin or 200 μL 5% trichloroacetic acid. 1 μL plasma and 2 μL BAL of supernatant were collected separately for the detection of PMB concentrations.
# Analysis of independently prepared quality control samples indicated good reproducibility (coefficients of variation ≤ 8.39%) and accuracy (measured concentrations ≤ 10.0% from target concentrations). The standard curve was linear over the range of 0.5 to 10,000 ng/mL, with precision and accuracy of less than 15%. The regression coefficient was 0.9985. The relative standard deviation values for the intra- and inter-day precision at low, middle, and high levels were all less than 6%, and the recovery rate was 83.1–85.4%.
# The plasma concentration–time values for PMB were analysed via Phoenix WinNonlin 8.1. The data were explored via noncompartmental and two-compartment PK models. The principles for final model selection were a low Akaike information criterion (AIC), visual evaluation of individual plasma concentration–time profiles, and precision of parameter estimations on the basis of one sample t-test or the correlation coefficient. The following PK parameters were generated via noncompartmental and two-compartment analysis: Cmax, CL, Vd, t1/2, k, and AUC was determined via the linear trapezoidal rule. The PMB Css,avg was calculated from the Cmax and Cmin that were directly obtained from the observed peak and trough concentrations in the stable state. The simulated concentrations were obtained via compartment PK models. Factors that affect PMB PK parameters were also evaluated.
# [1] = 27 critically ill patients, iv 100 mg loading, 50 mg q12h, noncompartmental analysis after last dose, mean
# [2] = Treatment Failure (n = 5), median [IQR]
# [3] = human, plasma, iv, 50 mg, Treatment Success (n = 22), median [IQR]
# [4] = human, plasma, iv, 50 mg, Table 2, 27 enrolled patients, mean
compound,measurement,setting,value
"CC[C@H](C)CCCCC(=O)N[C@@H](CCN)C(=O)N[C@H](C(=O)N[C@@H](CCN)C(=O)N[C@H]1CCNC(=O)[C@H]([C@@H](C)O)NC(=O)[C@H](CCN)NC(=O)[C@H](CCN)NC(=O)[C@H](CC(C)C)NC(=O)[C@@H](Cc2ccccc2)NC(=O)[C@H](CCN)NC1=O)[C@@H](C)O [PMB, polymyxin B] (X1-[Dab]T[Dab][Dab][Dab][dF]L[Dab][Dab]T; lactam 4-C)",half-life (t1/2),[1],19.56 h
same,volume of distribution (Vd),[1],30.44 L
same,"Css,avg","Table 2, 27 enrolled patients, mean",5.1 µg/mL
same,"Css,avg","Total (n = 27), median [IQR]","5.2 [3.8, 5.9]"
same,"Css,max","Total (n = 27), median [IQR]","8.7 [6.6, 10.1]"
same,"Css,avg",[2],"6.6 [5.9, 7.7]"
same,"Css,max",[2],"11.1 [9.9, 11.4]"
same,"Css,avg","Treatment Success (n = 22), median [IQR]","5.0 [3.7, 5.5]"
same,Cmax,"human, plasma, iv, 50 mg, Table 2, 27 enrolled patients, iv 100 mg loading, 50 mg q12h, mean",8300 ng/mL
same,AUC(0-t),"human, plasma, iv, 50 mg, Total (n = 27), median [IQR]",101 µg·h/mL
same,AUC(0-t),"human, plasma, iv, 50 mg, Treatment Failure (n = 5), median [IQR]",64.7 µg·h/mL
same,AUC(0-t),[3],112 µg·h/mL
same,Cmax,[3],8700 ng/mL
same,Vd,[4],30.4 L
same,clearance,[4],26.7 mL/min
same,half-life,[4],19.6 h
same,AUC(0-t),[4],110 µg·h/mL
